In brackets after ≈: the same amount, converted by molar mass. Entries after “also recorded” stand apart in the source; their conditions may differ.

The subject of data set [1] is fresh human erythrocytes. Put plainly: Hemolysis assay. Format: cell-based. As to conditions: 2 hours, all concentrations tested (even higher than 100 μg/mL). The protocol: FIG. 14A illustrates a cytotoxic activity assay of the red and blue 1,4 benzoquinones. Hemolysis was evaluated using fresh human erythrocytes. Lysis was evaluated by the absorbance of the supernatant at 415 nm after 2 hours of incubation with different concentrations of the 1,4 benzoquinones. Triton X-100 was used as positive control.
Hemolysis assay: The hemolytic activity was evaluated for both of the 1,4 benzoquinones using fresh human erythrocytes. Fresh human erythrocytes were washed four times with phosphate buffered saline (PBS) and incubated for 2 h at 37° C. with different concentration of the 1,4 benzoquinones. A gradient of Triton X-100 was used as positive control of hemolysis. After incubation, the erythrocytes suspension was centrifuged at 400×g for 10 min and supernatant was recovered. Hemolysis was determined by the absorbance of the supernatant at 415 nm.

The subject of data set [2] is Staphylococcus aureus. The data set is described as follows: disk-diffusion assay. The format is cell-based. On the procedure:
Ampicillin (5 μg) was used as a positive control.
(§1) This difference was confirmed using a broth microdilution assay (FIG. 3D). The minimum inhibitory concentration (MIC) for S. aureus growth was 4 μg/mL for the red 1,4 benzoquinone and 6 μg/mL for the blue 1,4 benzoquinone (FIG. 3D, Table 1). Ampicillin (MIC=0.5 μg/mL) was used as a positive control (ESCMID Eo (2003) Clin. Microbiol. Infect. 9: ix-xv; Pieterse et al., (2010) Brazil. J. Microbiol. 41: 133-145). These compounds were bactericidal at their MICs, killing 90% of S. aureus in 6 h and 99.9% in 24 h (Table 2).

The subject of data set [3] is Candida. albicans. The data set is described as follows: activity against pathogenic fungus. The format is cell-based.
Data set [4] relates to TE 671 (rhabdomyosarcoma cells). Put plainly: cytotoxicity assay, LDH release. Format: cell-based, human. The settings on record: 1, 5, and 25 μM, 12 hours. On the procedure:
(§2) Cytotoxicity to PBMCs and to Neoplastic Cells: The cytotoxicity of the 1,4 benzoquinones of the disclosure was tested with peripheral blood mononuclear cells (PBMCs) and various human neoplastic cell lines: A549 (adenocarcinomic lung epithelial cells), Jurkat (T cell leukemia), TE 671 (rhabdomyosarcoma cells) and SH-SY5Y (bone marrow neuroblastoma cells).
(§3) PBMCs were obtained from healthy blood donors and isolated by Ficoll-Paque PLUS density gradient centrifugation and resuspended in RPMI-1640 medium supplemented with 10% fetal calf serum. Cells were incubated at 37° C. in 5% CO2 overnight and non-adherent cells were recovered and used for subsequent experiments. The neoplastic cell lines were cultured according to the ATCC guidelines.
(§4) For cytotoxicity assays, cells were resuspended in DMEM without phenol red, supplemented with 2% heat-inactivated fetal calf serum. Cells were plated in 96-well polystyrene cell culture plates (2×10^4 to 2×10^5 cells/well depending on the cell type) and incubated at 37° C. in 5% CO2 for 8 hours to promote cell adhesion to the well's surface. The red and blue 1,4 benzoquinones were administered to achieve final concentrations of 1, 5, and 25 μM. Cells were then incubated at 37° C. in 5% CO2 for 12 hours. Following the incubation period, plates were centrifuged at 300×g for 10 minutes and supernatants were harvested to evaluate cell viability with the CytoTox 96@ Non-Radioactive Cytotoxicity Assay (Promega). This assay quantitatively measures lactate dehydrogenase (LDH), a stable cytosolic enzyme that is released upon cell lysis. The released LDH in the culture supernatants was measured with a colorimetric coupled enzymatic assay according to the manufacturer's instructions.

The subject of data set [5] is A549 (adenocarcinomic lung epithelial cells). The data set is described as follows: cytotoxicity assay, LDH release. As to conditions: 1, 5, and 25 μM, 12 hours. Format: cell-based, human. The protocol:
as §2, §3, §4
In general terms: LDH in the medium is a marker of cell lysis.

Data set [6] deals with Jurkat (T cell leukemia). The data set is described as follows: cytotoxicity assay, LDH release. The format is cell-based, human. As to conditions: 1, 5, and 25 μM, 12 hours. The protocol: as §2, §3, §4
In data set [7] the test system is SH-SY5Y (bone marrow neuroblastoma cells). Put plainly: cytotoxicity assay, LDH release. Format: cell-based, human. The settings on record: 1, 5, and 25 μM, 12 hours. The protocol:
as §2, §3, §4

Data set [8] deals with Staphylococcus aureus ATCC 29213. Put plainly: Minimum inhibitory concentration, Table 1, strain ATCC 29213. For sensitive/resistant (growth): key: S Sensitive (did not grow the crop); R resistant (bacterial growth). The settings on record: for sensitive/resistant (growth): ATCC 29213; for MIC: ATCC29213, Staphylococcus aureus ATCC 29213. Format: cell-based.
The subject of data set [9] is E. coli. The data set is described as follows: activity against gram negative E. coli. The format is cell-based.
Data set [10] deals with Staphylococcus aureus. The data set is described as follows: broth microdilution assay (MIC). As to conditions: S. aureus, read-out: minimum inhibitory concentration (MIC). Format: cell-based. The protocol:
FIG. 3D illustrates the determination of the minimal inhibitory concentrations (MICs) of the red and blue 1,4 benzoquinones against Staphylococcus aureus. The MICs determined by the broth microdilution assay are 4 μg/mL for the red 1,4 benzoquinone and 6 μg/mL for the blue 1,4 benzoquinone. Ampicillin was used as a positive control. Each result is reported as the mean±SD.
as §1
A general note: Broth dilution looks for growth in wells or tubes with falling amounts of substance.

The subject of data set [11] is TE671 muscle cells. Put plainly: detection of intracellular reactive oxygen species with DCFH-DA. The format is cell-based. The settings on record: 25 μM, 6 hours. The protocol:
FIG. 16A illustrates the detection of intracellular reactive oxygen species (ROS) using the oxidant-sensing probe dichloro-dihydro-fluorescein diacetate (DCFH-DA). TE671 muscle cells were used. Cells were cultured according to the ATCC guidelines. Before treatment, cells were incubated for one hour with a 10 μM solution of DCFH-DA. After the cells were washed 3×PBS, either the red or blue 1,4 benzoquinone was administered at a concentration of 25 μM. Cells were then incubated at 37° C. in 5% CO2 for 6 hours. Following the incubation period, cells were harvested and evaluated with a Zeiss Axioskop fluorescence microscope using a 485-nm excitation and 530-nm emission filter combination. […] Treatment with hydrogen peroxide (50 μM) was used as positive control.

The test system of data set [12] is peripheral blood mononuclear cells (PBMCs). The data set is described as follows: cytotoxicity assay, LDH release. The format is cell-based, human. The settings on record: 25 μM, 12 hours. The protocol:
FIG. 14B illustrates a cytotoxic effect of the 1,4 benzoquinones of the disclosure on peripheral blood mononuclear cells (PBMCs). PBMCs were incubated with the red and blue 1,4 benzoquinones at a concentration of 25 μM for 12 hours, and cell death was evaluated by the release of the stable cytosolic enzyme lactate dehydrogenase. […] Each result is reported as the mean±SD.
as §2, §3, §4

For `COC1=CC(=O)C(SC)=C(SC)C1=O` [blue 1,4 benzoquinone, 5-methoxy-2,3-bis(methylthio)cyclohexa-2,5-diene-1,4-dione], the hemolytic activity result in [1] was “no erythrocyte hemolysis was observed; also recorded: Neither 1,4 benzoquinone showed hemolytic activity”. Further, the “inhibition of S. aureus growth” value in data set [2] was “clear inhibition; also recorded: inhibitory activity”. Also, in data set [3], the “activity against the pathogenic fungus Candida. albicans” value was “Neither 1,4 benzoquinone showed activity”. Besides, the “cytotoxic effect on TE 671 cells (LDH release)” value in data set [4] is given as “comparably potent in inducing death”. Also, the “cytotoxic effect on A549 cells (LDH release)” value in data set [5] is reported as “remained relatively unaffected”. Moreover, in data set [6], the “cytotoxic effect on Jurkat cells (LDH release)” value is listed as “comparably potent in inducing death”. Further, the “cytotoxic effect on SH-SY5Y cells (LDH release)” value in [7] was “comparably potent in inducing death”. Further, the “sensitive/resistant (growth)” value in [8] (0.5 μg/ml) is recorded as “R”; in [8] (1 μg/ml), “S”; in data set [8] (2 μg/ml), “S”; in [8] (4 μg/ml) it was “S”; in [8] (8 μg/ml) it was “S”; in data set [8] (16 μg/ml), “S”. Moreover, the “sensitive/resistant (growth)” value in [8] (32 μg/ml) and in data set [8] (64 μg/ml) was “S” throughout. For the same compound, the MIC was determined as 1 µg/mL (≈ 4.34 µM) in data set [8] and 6 µg/mL (≈ 26.1 µM) in data set [10]. The “activity against gram negative E. coli” value in data set [9] was “neither compound was found to have appreciable activity; also recorded: Neither 1,4 benzoquinone showed activity”. Further, the “intracellular reactive oxygen species (oxidation of DCFH-DA)” value in data set [11] was “Intracellular oxidation of the DCFH-DA in cells treated with the 1,4 benzoquinones was observed”. This compound also had a PBMCs killed in data set [12] of 50%. For the same compound, in data set [12], the “cytotoxic effect on PBMCs (LDH release)” value was “cytotoxic against PBMCs”.
For the compound `COC1=CC(=O)C(SC)=C(OC)C1=O` [red 1,4 benzoquinone, 3,5-dimethoxy-2-(methylthio)cyclohexa-2,5-diene-1,4-dione], in data set [1], the hemolytic activity entry is reported as “no erythrocyte hemolysis was observed; also recorded: Neither 1,4 benzoquinone showed hemolytic activity”. In [2], the “inhibition of S. aureus growth” value was “clear inhibition; also recorded: inhibitory activity”. In addition, the “activity against the pathogenic fungus Candida. albicans” value in data set [3] was “Neither 1,4 benzoquinone showed activity”. Besides, in data set [4], the “cytotoxic effect on TE 671 cells (LDH release)” value is reported as “comparably potent in inducing death”. For the same compound, the “cytotoxic effect on A549 cells (LDH release)” value in [5] was “remained relatively unaffected”. The “cytotoxic effect on Jurkat cells (LDH release)” value in data set [6] is reported as “comparably potent in inducing death”. Besides, the “cytotoxic effect on SH-SY5Y cells (LDH release)” value in data set [7] is on record as “comparably potent in inducing death”. Besides, the “sensitive/resistant (growth)” value in data set [8] (0.5 μg/ml) is reported as “R”; in [8] (1 μg/ml), “S”; in data set [8] (2 μg/ml), “S”; in data set [8] (4 μg/ml), “S”; in data set [8] (8 μg/ml), “S”; in [8] (16 μg/ml), “S”. Further, the “sensitive/resistant (growth)” value in data set [8] (32 μg/ml) and in data set [8] (64 μg/ml) was “S” in each case. Besides, the MIC stood at 1 µg/mL (≈ 4.67 µM) in data set [8] and 4 µg/mL (≈ 18.7 µM) in [10]. Further, the “activity against gram negative E. coli” value in data set [9] was “neither compound was found to have appreciable activity; also recorded: Neither 1,4 benzoquinone showed activity”. The “intracellular reactive oxygen species (oxidation of DCFH-DA)” value in data set [11] is given as “Intracellular oxidation of the DCFH-DA in cells treated with the 1,4 benzoquinones was observed”. In addition, the PBMCs killed in [12] came to 60%. Besides, in data set [12], the “cytotoxic effect on PBMCs (LDH release)” value was “cytotoxic against PBMCs”.
